According to patent EP4678638A1, “NEW E3 UBIQUITIN LIGASE LIGAND, PROTEIN DEGRADATION AGENT AND USE THEREOF” (priority 2023, dated 2024):

Tests used:
CDK6 = target: T1, CDK6 (Homo sapiens, UniProt Q00534); assay: Western blot degradation of CDK6 (MDA-MB-231 Cell); format: cell-based; settings: Table D3
T1 construct: evaluate the effects of the compounds of the present disclosure on the expression of target proteins in cells; endogenous in cells; host or cells: MDA-MB-231
Description: (§1) Conventional Western blot assay was performed to evaluate the effects of the compounds of the present disclosure on the expression of target proteins in cells.
(§2) (1) Cell Seeding and Protein Harvesting: The selected cells were processed according to the cell seeding procedure and protein harvesting procedure in Table III-2. Table III-2 Cell Seeding and Protein Harvesting Procedures
(§3) (2) To the collected supernatant, 5X SDS sample loading buffer was added, followed by denaturation at 95°C for 5 minutes. The denatured samples were then separated by SDS-PAGE electrophoresis on a polyacrylamide gel. Proteins were transferred to a nitrocellulose membrane (0.45 µm NC membrane), blocked with blocking buffer at room temperature for 1 hour, and subjected to antibody incubation and development procedures according to the antibody manufacturer's instructions (Cell Signaling Technology).
(§4) Half-Maximal Degradation Concentration value (the drug concentration required for degrading proteins by 50%, abbreviated as DC50) reads method: comparing the grayscale values of Western blot bands from drug-treated samples with those from blank DMSO-treated controls, and identifying the drug concentration range at which the grayscale value is half that of the DMSO-treated control bands.
(§5) DC50 values can be calculated using ImageJ software to measure grayscale values of Western blot bands from drug-treated samples. The concentration-response curve is fitted to estimate the drug concentration corresponding to half the grayscale value.
(§6) Target protein remaining (%) refers to the percentage of target protein remaining in hPBMC cells after treatment with protein degrader compounds.
(§7) Calculation method for target protein remaining (%): Use ImageJ software to measure grayscale values of Western blot bands from drug (protein degrader)-treated samples. The grayscale value of drug-treated bands is divided by that of internal control protein bands, and the resulting quotient is normalized to obtain the relative percentage of remaining target protein after protein degrader treatment.
(§8) Target protein degradation rate (%) = 100% - target protein remaining (%).

CDK4 = target: T2, CDK4 (Homo sapiens, UniProt P11802); assay: Western blot degradation of CDK4 (MDA-MB-231 Cell); format: cell-based; settings: Table D3
T2 construct: evaluate the effects of the compounds of the present disclosure on the expression of target proteins in cells; endogenous in cells; host or cells: MDA-MB-231
T2 sequence (P11802 whole entry): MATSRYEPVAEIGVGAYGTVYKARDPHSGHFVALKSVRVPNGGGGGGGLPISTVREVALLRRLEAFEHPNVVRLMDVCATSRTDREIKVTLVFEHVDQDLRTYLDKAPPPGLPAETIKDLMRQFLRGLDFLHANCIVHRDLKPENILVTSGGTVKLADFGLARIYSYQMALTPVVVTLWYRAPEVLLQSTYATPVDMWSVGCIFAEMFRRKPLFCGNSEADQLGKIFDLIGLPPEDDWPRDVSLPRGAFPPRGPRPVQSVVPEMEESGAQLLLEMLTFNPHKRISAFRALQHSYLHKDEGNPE
Description: as §1, §2, §3, §4, §5, §6, §7, §8

T1 sequence (Q00534 whole entry): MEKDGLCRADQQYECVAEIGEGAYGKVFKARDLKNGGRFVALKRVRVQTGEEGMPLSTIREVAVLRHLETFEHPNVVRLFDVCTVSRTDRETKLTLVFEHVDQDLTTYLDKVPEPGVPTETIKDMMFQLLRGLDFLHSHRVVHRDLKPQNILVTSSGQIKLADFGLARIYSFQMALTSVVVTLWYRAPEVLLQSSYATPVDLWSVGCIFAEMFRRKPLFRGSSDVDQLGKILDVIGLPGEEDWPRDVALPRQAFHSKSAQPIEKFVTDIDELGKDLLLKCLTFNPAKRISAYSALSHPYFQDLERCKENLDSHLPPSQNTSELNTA

| Structure (SMILES) | Degradation of substrate protein CDK6 (substrate protein remaining %) (CDK6) | Degradation of substrate protein CDK4 (substrate protein remaining %) (CDK4) |
| --- | --- | --- |
| CN(C)C(=O)c1cc2cnc(Nc3ccc(N4CCC(N(C)Cc5ccc(N6CCC(=O)NC6=O)cc5)CC4)cn3)nc2n1C1CCCC1 [GT-06491, 7-cyclopentyl-2-((5-(4-((4-(2,4-dioxotetrahydropyrimidin-1(2H)-yl)benzyl)(methyl)amino)piperidin-1-yl)pyridin-2-yl)amino)-N,N-dimethyl-7H-pyrrolo[2,3-d]pyrimidine-6-carboxamide] | A (A is defined as 0% ≤ substrate protein remaining % ≤ 80%) | B (B is defined as substrate protein remaining % > 80%) |
| CC(=O)c1c(C)c2cnc(Nc3ccc(N4CCN(Cc5ccc(N6CCC(=O)NC6=O)cc5)CC4)cn3)nc2n(C2CCCC2)c1=O [GT-06576, 1-(4-((4-(6-((6-acetyl-8-cyclopentyl-5-methyl-7-oxo-7,8-dihydropyrido[2,3-d]pyrimidin-2-yl)amino)pyridin-3-yl)piperazin-1-yl)methyl)phenyl)dihydropyr imidine-2,4(1H,3H)-dione] | A (A is defined as 0% ≤ substrate protein remaining % ≤ 80%) | A (A is defined as 0% ≤ substrate protein remaining % ≤ 80%) |
| CC(=O)c1c(C)c2cnc(Nc3ccc(N4CCN(Cc5cc(N6CCC(=O)NC6=O)ncc5F)CC4)cn3)nc2n(C2CCCC2)c1=O [GT-07480, 1-(4-((4-(6-((6-acetyl-8-cyclopentyl-5-methyl-7-oxo-7,8-dihydropyrido[2,3-d]pyrimidin-2-yl)amino)pyridin-3-yl)piperazin-1-yl)methyl)-5-fluoropyridin-2-yl)dihydropyrimidine-2,4(1H,3H)-dione] | A (A is defined as 0% ≤ substrate protein remaining % ≤ 80%) | A (A is defined as 0% ≤ substrate protein remaining % ≤ 80%) |
| CN(C)C(=O)c1cc2cnc(Nc3ccc(N4CCN(Cc5ccc(N6CCC(=O)NC6=O)cn5)CC4)cn3)nc2n1C1CCCC1 [GT-06342, 7-cyclopentyl-2-((5-(4-((5-(2,4-dioxotetrahydropyrimidin-1(2H)-yl)pyridin-2-yl)methyl)piperazin-1-yl)pyridin-2-yl)amino)-N,N-dimethyl-7H-pyrrolo[2,3-d]pyrimidine-6-carboxamide] | A (A is defined as 0% ≤ substrate protein remaining % ≤ 80%) | A (A is defined as 0% ≤ substrate protein remaining % ≤ 80%) |
| CC(=O)c1c(C)c2cnc(Nc3ccc(N4CCN(Cc5ccnc(N6CCC(=O)NC6=O)c5)CC4)cn3)nc2n(C2CCCC2)c1=O [GT-07481, 1-(4-((4-(6-((6-acetyl-8-cyclopentyl-5-methyl-7-oxo-7,8-dihydropyrido[2,3-d]pyrimidin-2-yl)amino)pyridin-3-yl)piperazin-1-yl)methyl)pyridin-2-yl)dihydropyrimidine-2,4(1H,3H)-dione] | A (A is defined as 0% ≤ substrate protein remaining % ≤ 80%) | A (A is defined as 0% ≤ substrate protein remaining % ≤ 80%) |
| CN(C)C(=O)c1cc2cnc(Nc3ccc(N4CCN(Cc5cccc(NC6CCC(=O)NC6=O)c5)CC4)cn3)nc2n1C1CCCC1 (stereo not drawn) [GT-06344, 7-cyclopentyl-2-((5-(4-(3-((2,6-dioxopiperidin-3-yl)amino)benzyl)piperazin-1-yl)pyridin-2-yl)amino)-N,N-dimethyl-7H-pyrrolo[2,3-d]pyrimidine-6-carboxamide] | A (A is defined as 0% ≤ substrate protein remaining % ≤ 80%) | B (B is defined as substrate protein remaining % > 80%) |
| CN(C)C(=O)c1cc2cnc(Nc3ccc(N4CCN(Cc5cnc(N6CCC(=O)NC6=O)cn5)CC4)cn3)nc2n1C1CCCC1 [GT-07831, 7-cyclopentyl-2-((5-(4-((5-(2,4-dioxotetrahydropyrimidin-1(2H)-yl)pyrazin-2-yl)methyl)piperazin-1-yl)pyridin-2-yl)amino)-N,N-dimethyl-7H-pyrrolo[2,3-d]pyrimidine-6-carboxamide] | A (A is defined as 0% ≤ substrate protein remaining % ≤ 80%) | A (A is defined as 0% ≤ substrate protein remaining % ≤ 80%) |
| CN(C)C(=O)c1cc2cnc(Nc3ccc(N4CCN(Cc5ccc(N6CCC(=O)NC6=O)cc5)CC4)cn3)nc2n1C1CCCC1 [GT-06340, 7-cyclopentyl-2-((5-(4-(4-(2,4-dioxotetrahydropyrimidin-1(2H)-yl)benzyl)piperazin-1-yl)pyridin-2-yl)amino)-N,N-dimethyl-7H-pyrrolo[2,3-d]pyrimidine-6-carboxamide] | A (A is defined as 0% ≤ substrate protein remaining % ≤ 80%) | A (A is defined as 0% ≤ substrate protein remaining % ≤ 80%) |
| CN(C)C(=O)c1cc2cnc(Nc3ccc(N4CCN(Cc5cc(N6CCC(=O)NC6=O)ncc5F)CC4)cn3)nc2n1C1CCCC1 [GT-07474, 7-cyclopentyl-2-((5-(4-((2-(2,4-dioxotetrahydropyrimidin-1(2H)-yl)-5-fluoropyridin-4-yl)methyl)piperazin-1-yl)pyridin-2-yl)amino)-N,N-dimethyl-7H-pyrrolo[2,3-d]pyrimidine-6-carboxamide] | A (A is defined as 0% ≤ substrate protein remaining % ≤ 80%) | A (A is defined as 0% ≤ substrate protein remaining % ≤ 80%) |
| CN(C)C(=O)c1cc2cnc(Nc3ccc(N4CCC(N(C)Cc5ccc(C6CCC(=O)NC6=O)cc5)CC4)cn3)nc2n1C1CCCC1 (stereo not drawn) [GT-06490, 7-cyclopentyl-2-((5-(4-((4-(2,6-dioxopiperidin-3-yl)benzyl)(methyl)amino)piperidin-1-yl)pyridin-2-yl)amino)-N,N-dimethyl-7H-pyrrolo[2,3-d]pyrimidine-6-carboxamide] | B (B is defined as substrate protein remaining % > 80%) | A (A is defined as 0% ≤ substrate protein remaining % ≤ 80%) |
| CN(C)C(=O)c1cc2cnc(Nc3ccc(N4CCN(Cc5ccnc(C6CCC(=O)NC6=O)c5)CC4)cn3)nc2n1C1CCCC1 (stereo not drawn) [GT-07478, 7-cyclopentyl-2-((5-(4-((2-(2,6-dioxopiperidin-3-yl)pyridin-4-yl)methyl)piperazin-1-yl)pyridin-2-yl)amino)-N,N-dimethyl-7H-pyrrolo[2,3-d]pyrimidine-6-carboxamide] | A (A is defined as 0% ≤ substrate protein remaining % ≤ 80%) | A (A is defined as 0% ≤ substrate protein remaining % ≤ 80%) |
| CN(C)C(=O)c1cc2cnc(Nc3ccc(N4CCC(N(C)Cc5ccc(N6CCC(=O)NC6=O)cn5)CC4)cn3)nc2n1C1CCCC1 [GT-06493, 7-cyclopentyl-2-((5-(4-(((5-(2,4-dioxotetrahydropyrimidin-1(2H)-yl)pyridin-2-yl)methyl)(methyl)amino)piperidin-1-yl)pyridin-2-yl)amino)-N,N-dimethyl-7H-pyrrolo[2,3-d]pyrimidine-6-carboxamide] | B (B is defined as substrate protein remaining % > 80%) | A (A is defined as 0% ≤ substrate protein remaining % ≤ 80%) |
